In patent publication US6730655B2, “Biphenyl diquaternary ammonium compounds” (Ciba Specialty Chemicals Corporation, priority 2000, dated 2004):

Tests used:
[1] = system: Candida albicans ATCC 10231; conditions: Sabouraud agar, 2 days at 37° C.
Description: (§1) Determination of the Minimum Inhibitory Concentration (MIC Value)
(§2) The procedure to determine the antimicrobial activity of the compounds of the invention is as follows:
(§3) Casein/soybean flour peptone bouillon for the preparation of pre-cultures of the test bacteria and yeast.
(§4) Sabouraud agar for determining the MIC value of Aspergillus niger and Candida albicans.
(§5) deionised water or EtOH as solvent.
(§6) The test substances are predissolved in deionised water or in ethanol and incorporated in a dilution series in agar warmed to 47-50° C.
(§7) Bacteria and yeast are incubated for from 18 to 24 hours at 37° C. in casein/soybean flour peptone bouillon.
(§8) All the test organisms are adjusted to an organism count of from 10^6 to 10^7 CFU/ml using 0.85% sodium chloride solution.
(§9) The organism suspensions are each pipetted in an amount of 10 μl onto an agar plate containing the test substance. The test batches are then incubated for 2 days at 37° C. (bacteria and yeast) or for 3 days at 28° C. (Aspergillus niger). In order to check the influence of the solvent used (deionised water, ethanol), organism suspensions are in addition incubated on agar plates without test substances (control plates).
(§10) After incubation, the growth of the microorganisms on the test substances is compared with the control plates. The minimum inhibitory concentration (MIC value) is the concentration of substance at which (compared with the control plates) a clear inhibition of growth of the test organisms is to be ascertained.
(§11) The microbiological data ascertained are compiled in Table 1.

[2] = system: Escherichia coli NCTC 8196; conditions: Mueller Hinton agar, 2 days at 37° C.
Description: as §1, §2, §3
(§12) Mueller Hinton agar for determining the MIC value of bacteria.
as §5, §6, §7, §8, §9, §10, §11

[3] = system: Staphylococcus hominis DSM 20328; conditions: Mueller Hinton agar, 2 days at 37° C.
Description: as §1, §2, §3, §12, §5, §6, §7, §8, §9, §10, §11

[4] = system: Aspergillus niger ATCC 6275; conditions: Sabouraud agar, 3 days at 28° C.
Experimental: as §1, §2
Sabouraud agar for the pre-culture of Aspergillus niger.
as §4, §5, §6
The mould is cultured on Sabouraud agar and rinsed off with 0.85% sodium chloride solution containing 0.01% Triton X-100.
as §8, §9, §10, §11

[5] = system: Staphylococcus aureus ATCC 6538; conditions: test substance 1600 ppm, contact time 5 minutes at 20° C., 0.3% bovine serum albumin
Experimental: Suspension Test to Determine the Bactericidal Activity in Accordance with the European Standard According to EN 1276
Staphylococcus aureus ATCC 6538.
5 minutes at 20° C. (+/−1° C.).
Inactivation Medium After the Contact Time
D/E neutralisation solution (Dey-Engley, consisting of 0.1% sodium thioglycolate,
0.5% Tween 80, and also 0.7% lecithin and sterile, deionised water ad 100%).
Casein/soybean flour peptone agar with lecithin, L-histidine, and Tween 80 as inactivating agent
(Merckoplate No. 18360, Merck-Darmstadt).
Incubation of the Test Plates
Precaration of the Pre-Culture
The bacteria cultures are cultured on casein/soybean flour peptone slant agar and incubated for from 18 to 24 hours at 37° C. They are then rinsed off with water and adjusted to a bacteria count of 1.5×10^8-5×10^8 CFU/ml.
All of the reagents required for the test are first equilibrated at 20° C. (+/−1° C.). 1.0 ml of 0.3% bovine serum albumin (in deionised water) is introduced into a test tube. After the addition of 1.0 ml of bacteria suspension (1.5×10^8-5×10^8 CFU/ml), the solution is mixed and maintained at 20° C. for 2 minutes (+/−10 seconds). 8.0 ml of the test substance (2000 ppm solution in water) are then added. The mixture is incubated for 5 minutes at 20° C. (+/−1° C.). […] After the period of incubation, the number of colonies is counted and quoted as a logarithmic reduction (log 10) of the bacteria.

Structure (SMILES)	MIC values C. albicans [1] [ppm]	MIC values E. coli [2] [ppm]	MIC values S. hominis [3] [ppm]	MIC values A. niger [4] [ppm]	Logarithmic reduction Staphylococcus aureus [5] [log 10]
CCCCCCCCCCCCCCCC[N+](C)(C)Cc1ccc(-c2ccc(C[N+](C)(C)CCCCCCCCCCCCCCCC)cc2)cc1.[Cl-].[Cl-] [Compound of formula (5), 4,4′-Bis(N,N-dimethyl-N-hexadecyl-ammoniummethyl)biphenyl dichloride]	500	1000	100	1000	
CCCCCC[N+](C)(C)Cc1ccc(-c2ccc(C[N+](C)(C)CCCCCC)cc2)cc1.[Cl-].[Cl-] [Compound of formula (2), 4,4′-Bis(N,N-dimethyl-N-hexyl-ammoniummethyl)biphenyl dichloride]	50	5	50	2.5	5.6
CCCCCCCCCCCC[N+](C)(C)Cc1ccc(-c2ccc(C[N+](C)(C)CCCCCCCCCCCC)cc2)cc1.[Cl-].[Cl-] [Compound of formula (4), 4,4′-Bis(N,N-dimethyl-N-dodecyl-ammoniummethyl)biphenyl dichloride]	25	250	10	100	
CCCCCCCC[N+](C)(C)Cc1ccc(-c2ccc(C[N+](C)(C)CCCCCCCC)cc2)cc1.[Cl-].[Cl-] [Compound of formula (3), 4,4′-Bis(N,N-dimethyl-N-octyl-ammoniummethyl)biphenyl dichloride]	10	1	5	2.5	5.6
